What is called pIC50 is −log10 of the IC50, conventionally taken in molar units. A higher pIC50 goes with a low IC50. The term MIC90 denotes an inhibitory concentration at the 90% level, which refers to growth in some studies and to a panel of isolates in others. Higher therefore signals weaker potency.

Consider nine compounds from patent US20250188092A1, “RIFAMYCIN ANALOGS” (THE REGENTS OF THE UNIVERSITY OF MICHIGAN, priority 2021, published 2025).

Structures are written as SMILES. pIC50: −log10 of the molar value. Values after ≈ are worked out from the molar mass of the structure shown. Bounds are passed on as bounds.

In series [1] the test system is VERO cells (ATCC CRL-81). The series is described as follows: Vero cell toxicity. It is filed as cell-based. As to conditions: Chlorocebus sabaeus, Vero; 72 hours exposure. As to the method:
Cytotoxicity for a mammalian cell line was determined by exposing VERO cells (ATCC CRL-81) to serial dilutions of test compounds for 72 hours, followed by addition of resazurin and measurement of fluorescence after 4 hours incubation (Choules, et al., Antimnicrob. Agents Chemother. 2019, 63, e02204-02218).

The subject of series [2] is MTB H37Rv ATCC 27294. The experiment in a line: MIC, microplate Alamar Blue assay (MABA). It is filed as cell-based, Mycobacterium tuberculosis. As to conditions: for MIC90: Mycobacterium tuberculosis, MTB H37Rv ATCC 27294, microplate Alamar Blue assay, lowest concentration giving ≥90% reduction in fluorescence.
Series [3] concerns DPX2 cells. As to conditions: for DPX2 Viability @ 6.25 μM: 24 h; for DPX2 Viability @ 25 μM: human.

The compound `CO[C@H]1/C=C/O[C@@]2(C)Oc3c(C)c(O)c4c(=O)c(c5oc6cc(N7CCC(C(=O)O)CC7)cc(OCc7ccc(CN8CCN(C)CC8)cc7)c6nc-5c4c3C2=O)NC(=O)/C(C)=C\C=C\[C@H](C)[C@H](O)[C@@H](C)[C@@H](O)[C@@H](C)[C@H](OC(C)=O)[C@@H]1C` [Compound 17q, 1-[(7S,9E,11S,12R,13S,14R,15R,16R,17S,18S,19E,21Z)-13-(acetyloxy)-2,15,17-trihydroxy-11-methoxy-3,7,12,14,16,18,22-heptamethyl-32-({4-[(4-methylpiperazin-1-yl)methyl]phenyl}methoxy)-6,23,37-trioxo-8,27,38-trioxa-24,34-diazahexacyclo-[23.11.1.1^4,7.0^5,36.0^26,35.0^28,33]-octatriaconta-1,3,5(36)9,19,21,25,28,30,32,34-undecaen-30-yl]piperidine-4-carboxylic acid] had a pIC50 in series [1] below 5.00. Further, in series [2], the “MIC90 MABA Rel to RMP” value came out at 16 and the MIC90 was 0.415 µM (≈ 0.469 µg/mL). In series [3], the “DPX2 Viability @ 6.25 μM” value is on record as 100% and the “DPX2 Viability @ 25 μM” value amounted to 98%.
`CO[C@H]1/C=C/O[C@@]2(C)Oc3c(C)c(O)c4c(=O)c(c5oc6cc(N7CCN(C(=O)c8ccc9occc9c8)CC7)cc(OCc7ccc(CN8CCOCC8)cc7)c6nc-5c4c3C2=O)NC(=O)/C(C)=C\C=C\[C@H](C)[C@H](O)[C@@H](C)[C@@H](O)[C@@H](C)[C@H](OC(C)=O)[C@@H]1C` [Compound 17s, (7S,9E,11S,12R,13S,14R,15R,16R,17S,18S,19E,21Z)-30-{4-[(1-benzofuran-5-yl)carbonyl]piperazin-1-yl}-2,15,17-trihydroxy-11-methoxy-3,7,12,14,16,18,22-heptamethyl-32-{[4-(morpholin-4-ylmethyl)phenyl]methoxy}-6,23,37-trioxo-8,27,38-trioxa-24,34-diazahexacyclo[23.11.1.1^4,7.0^5,36.0^26,35.0^28,33]octatriaconta-1,3,5(36)9,19,21,25,28,30,32,34-undecaen-13-yl acetate] showed a pIC50 in series [1] below 5.00. In series [2], the “MIC90 MABA Rel to RMP” value was found to be 0.36 and the MIC90 came to 0.018 µM. Besides, in series [3], the “DPX2 Viability @ 6.25 μM” value is recorded as 102% and the “DPX2 Viability @ 25 μM” value amounted to 86%.
The like results for `CO[C@H]1/C=C/O[C@@]2(C)Oc3c(C)c(O)c4c(=O)c(c5oc6cc(N7CCCC(C(=O)Nc8ccc(Cl)cc8)C7)cc(C)c6nc-5c4c3C2=O)NC(=O)/C(C)=C\C=C\[C@H](C)[C@H](O)[C@@H](C)[C@@H](O)[C@@H](C)[C@H](OC(C)=O)[C@@H]1C` (stereo partly drawn) [Compound 28, (7S,9E,11S,12R,13S,14R,15R,16R,17S,1S,19E,21Z)-30-{3-[(4-Chlorophenyl)carbamoyl]piperidin-1-yl}-2,15,17-trihydroxy-11-methoxy-3,7,12,14,16,18,22,32-octamethyl-6,23,37-trioxo-8,27,38-trioxa-24,34-diazahexacyclo[23.11.1.1^4,7.0^5,36.0^26,35.0^28,33]octatriaconta-1(36)2,4,9,19,21,25,28,30,32,34-undecaen-13-yl acetate] were, in that order, below 5.00, 0.16, 0.0044 µM, 110% and 109%.
The like results for `CO[C@H]1/C=C/O[C@@]2(C)Oc3c(C)c(O)c4c(=O)c(c5oc6cc(N7CCN(C(=O)c8cccc(-c9ccccn9)c8)CC7)cc(C)c6nc-5c4c3C2=O)NC(=O)/C(C)=C\C=C\[C@H](C)[C@H](O)[C@@H](C)[C@@H](O)[C@@H](C)[C@H](OC(C)=O)[C@@H]1C` [Compound 29b, (7S,9E,11S,12R,13S,14R,15R,16R,17S,18S,19E,21Z)-2,15,17-Trihydroxy-11-methoxy-3,7,12,14,16,18,22,32-octamethyl-6,23,37-trioxo-30-(4-[3-(pyridin-2-yl)benzoyl]piperazin-1-yl)-8,27,38-trioxa-24,34-diazahexacyclo-[23.11.1.1^4,7.0^5,36.0^26,35.0^28,33]octatriaconta-1(36)2,4,9,19,21,25,28,30,32,34-undecaen-13-yl acetate] were, in that order, below 5.00, 0.32, 0.0087 µM, 136% and 128%.
The like results for `CO[C@H]1/C=C/O[C@@]2(C)Oc3c(C)c(O)c4c(=O)c(c5oc6cc(N7CCN(C(=O)c8ccc9occc9c8)CC7)cc(C)c6nc-5c4c3C2=O)NC(=O)/C(C)=C\C=C\[C@H](C)[C@H](O)[C@@H](C)[C@@H](O)[C@@H](C)[C@H](OC(C)=O)[C@@H]1C` [Compound 29c, (7S,9E,11S,12R,13S,14R,15R,16R,17S,18S,19E,21Z)-30-[4-(1-Benzofuran-5-carbonyl)piperazin-1-yl]-2,15,17-trihydroxy-11-methoxy-3,7,12,14,16,18,22,32-octamethyl-6,23,37-trioxo-8,27,38-trioxa-24,34-diazahexacyclo[23.11.1.1^4,7.0^5,36.0^26,35.0^28,33]octatriaconta-(36)2,4,9,19,21,25,28,30,32,34-undecaen-13-yl acetate] were, in that order, below 5.00, 0.18, 0.0049 µM, 121% and 114%.
`CO[C@H]1/C=C/O[C@@]2(C)Oc3c(C)c(O)c4c(=O)c(c5oc6cc(N7CCC(C(=O)O)CC7)cc(C)c6nc-5c4c3C2=O)NC(=O)/C(C)=C\C=C\[C@H](C)[C@H](O)[C@@H](C)[C@@H](O)[C@@H](C)[C@H](OC(C)=O)[C@@H]1C` [Compound 29f, 1-[(7S,9E,11S,12R,13S,14R,15R,16R,17S,18S,19E,21Z)-13-(acetyloxy)-2,15,17-trihydroxy-11-methoxy-3,7,12,14,16,18,22,32-octamethyl-6,23,37-trioxo-8,27,38-trioxa-24,34-diazahexacyclo-[23.11.1.1^4,7.0^5,36.0^26,35.0^28,33]octatriaconta-1,3,5(36)9,19,21,25,28,30,32,34-undecaen-30-yl]piperidine-4-carboxylic acid] gave a pIC50 in series [1] below 5.00. Also, in series [2], the “MIC90 MABA Rel to RMP” value came out at 8.9 and the MIC90 stood at 0.238 µM (≈ 0.22 µg/mL). In series [3], the “DPX2 Viability @ 6.25 μM” value is 126% and the “DPX2 Viability @ 25 μM” value amounted to 131%.
The like results for `CO[C@H]1/C=C/O[C@@]2(C)Oc3c(C)c(O)c4c(=O)c(c5oc6cc(N7CCC(CC(=O)O)CC7)cc(C)c6nc-5c4c3C2=O)NC(=O)/C(C)=C\C=C\[C@H](C)[C@H](O)[C@@H](C)[C@@H](O)[C@@H](C)[C@H](OC(C)=O)[C@@H]1C` [Compound 29g, 2-{4-[(7S,9E,11S,12R,13S,14R,15R,16R,17S,18S,19E,21Z)-13-(acetyloxy)-2,15,17-trihydroxy-11-methoxy-3,7,12,14,16,18,22,32-octamethyl-6,23,37-trioxo-8,27,38-trioxa-24,34-diazahexacyclo[23.11.1.1^4,7.0^5,36.0^26,35.0^28,33]octatriaconta-1,3,5(36)9,19,21,25,28,30,32,34-undecaen-30-yl]piperidin-4-yl}acetic acid] were, in that order, below 5.00, 1.9, 0.051 µM (≈ 0.0479 µg/mL), 100% and 101%.
The like results for `CO[C@H]1/C=C/O[C@@]2(C)Oc3c(C)c(O)c4c(=O)c(c5oc6cc(N7CCN(CC(=O)O)CC7)cc(C)c6nc-5c4c3C2=O)NC(=O)/C(C)=C\C=C\[C@H](C)[C@H](O)[C@@H](C)[C@@H](O)[C@@H](C)[C@H](OC(C)=O)[C@@H]1C` [Compound 29h, 2-{4-[(7S,9E,11S,12R,13S,14R,15R,16R,17S,18S,19E,21Z)-13-(acetyloxy)-2,15,17-trihydroxy-11-methoxy-3,7,12,14,16,18,22,32-octamethyl-6,23,37-trioxo-8,27,38-trioxa-24,34-diazahexacyclo[23.11.1.1^4,7.0^5,36.0^26,35.0^28,33]octatriaconta-1,3,5(36)9,19,21,25,28,30,32,34-undecaen-30-yl]piperazin-1-yl}acetic acid] were, in that order, below 5.00, 0.69, 0.018 µM (≈ 0.0169 µg/mL), 109% and 98%.
The like results for `CO[C@H]1/C=C/O[C@@]2(C)Oc3c(C)c(O)c4c(=O)c(c5oc6cc(C)cc(N7CCN(CCn8ccnc8)CC7)c6nc-5c4c3C2=O)NC(=O)/C(C)=C\C=C\[C@H](C)[C@H](O)[C@@H](C)[C@@H](O)[C@@H](C)[C@H](OC(C)=O)[C@@H]1C` [Compound 30e, (7S,9E,11S,12R,13S,14R,15R,16R,17S,18S,19E,21Z)-2,15,17-Trihydroxy-32-{4-[3-(1H-imidazol-1-yl)ethyl]piperazin-1-yl}-11-methoxy-3,7,12,14,16,18,22,30-octamethyl-6,23,37-trioxo-8,27,38-trioxa-24,34-diazahexacyclo[23.11.1.1^4,7.0^5,36.0^26,35.0^28,33]octatriaconta-1(36)2,4,9,19,21,25,28,30,32,34-undecaen-13-yl acetate] were, in that order, below 5.00, 3.11, 0.084 µM, 130% and 119%.
